In data set [1] the test system is LPS-induced IL-8 release in d-U937 cells. Kind of data set: LPS-induced IL-8 release in d-U937 cells. It is filed as cell-based. The note with it: Homo sapiens, dU937, 0.1 μg/mL LPS, 4 hr. The method, then:
(§1) Cellular Potency as Determined by LPS-Induced TNFα/IL-8 Release in d-U937Cells
(§2) U937 cells, a human monocytic cell line, were differentiated to macrophage-type cells by incubation with phorbol myristate acetate (PMA; 100 ng/mL) for 48 to 72 hr. Cells were pre-incubated with final concentrations of test compound for 2 hr and were then stimulated with 0.1 μg/mL of LPS (from E. Coli: O111:B4, Sigma) for 4 hr. The supernatant was collected for determination of TNFα and IL-8 concentrations by sandwich ELISA (Duo-set, R&D systems). […] The relative 50% effective concentration (REC50) was determined from the resultant concentration-response curve. The inhibition of IL-8 production was calculated at each concentration of test compound by comparison with vehicle control. The 50% inhibitory concentration (IC50) was determined from the resultant concentration-response curve.

In data set [2] the test system is Poly I:C-induced ICAM-1 expression in BEAS2B cells. In words: Poly I:C-induced ICAM-1 induction in BEAS2B cells. The data set is classed as cell-based. The note with it: Homo sapiens, BEAS-2B, poly I:C 1 μg/mL, 18 hr, read-out: PolyI:C/ICAM1 IC50 BEAS2B. The procedure:
Cellular Potency as Determined by Poly I:C-Induced ICAM-1 Induction in BEAS2B Cells
Poly I:C (1 μg/mL) (Invivogen Ltd., San Diego, Calif.) was transfected into BEAS2B cells (human bronchial epithelial cells, ATCC) with Oligofectamine (Invitrogen, Carlsbad, Calif.). Cells were pre-incubated with final concentrations of test compounds for 2 hr and the level of ICAM1 expression on the cell surface was determined by cell-based ELISA. At a time point 18 hr after poly I:C transfection, cells were fixed with 4% formaldehyde in PBS and then endogenous peroxidase was quenched by the addition of 0.1% sodium azide and 1% hydrogen peroxide. Cells were washed with wash-buffer (0.1% Tween in PBS: PBS-Tween). and after blocking the wells with 5% milk in PBS-Tween for 1 hr, the cells were incubated with anti-human ICAM-1 antibody (Cell Signaling Technology, Danvers, Mass.) in 1% BSA PBS overnight at 4° C. The cells were washed with PBS-Tween and incubated with the secondary antibody (HRP-conjugated anti-rabbit IgG, Dako Ltd., Glostrup, Denmark). The ICAM-1 signal was detected by adding substrate and reading the absorbance at 450 nm against a reference wavelength of 655 nm using a spectrophotometer. The cells were then washed with PBS-Tween and total cell numbers in each well were determined by reading absorbance at 595 nm after Crystal Violet staining and elution by 1% SDS solution. The measured OD 450-655 readings were corrected for cell number by dividing with the OD595 reading in each well. The inhibition of ICAM-1 expression was calculated at each concentration of test compound by comparison with vehicle control. The 50% inhibitory concentration (IC50) was determined from the resultant concentration-response curve.

Data set [3] has as its target T1, p38 MAPKα isoform (MAPK14: Invitrogen) (Homo sapiens, UniProt Q16539).
T1 construct: purchased Invitrogen
Kind of data set: p38 MAPKα enzyme inhibition assay (FRET, Z-LYTE, via MAPKAP-K2 activation). It is filed as biochemical. The note with it: 2 hr pre-incubation, ATP 10.0 μM; read-out: Enzyme Inhibition IC50 p38α.

Data set [4] concerns Differentiated U937 cells. In words: MTT assay: cell viability on exposure to test compounds. The data set is classed as cell-based, human. The note with it: percentage loss of cell viability vs vehicle, 1 μg/mL; for MTT Assay (Viability) 4 h d-U937: 5% FCS; for MTT Assay (Viability) 24 h d-U937: 10% FCS. The procedure: MTT Assay: Determination of Cell Viability on Exposure to Test Compounds
Differentiated U937 cells were pre-incubated with each test compound under two protocols: the first for 4 hr in 5% FCS and the second in 10% FCS for 24 h. The supernatant was replaced with 200 μL of new media and 10 μL of MTT stock solution (5 mg/mL) was added to each well. After incubation for 1 hr the media were removed, 200 μL of DMSO was added to each well and the plates were shaken lightly for 1 hr prior to reading the absorbance at 550 nm. The percentage loss of cell viability was calculated for each well relative to vehicle (0.5% DMSO) treatment. Consequently an apparent increase in cell viability for drug treatment relative to vehicle is tabulated as a negative percentage.
Background: Formazan colour is commonly taken as a measure of viable cells.

The subject of data set [5] is LPS-induced TNFα release in THP-1 cells. In words: LPS-induced TNFα release in THP-1 cells. It is filed as cell-based. The note with it: Homo sapiens, 3 μg/mL LPS, 4 hr. The method, then: Cellular Potency as Determined by LPS-Induced TNFα Release in THP-1 Cells
THP-1 cells, a human monocytic cell line, were stimulated with 3 μg/mL of LPS (from E. Coli; 0111:B4, Sigma) for 4 hr and the supernatant collected for determination of the TNFα concentration by sandwich ELISA (Duo-set, R&D systems). The inhibition of TNFα production was calculated at each concentration by comparison with vehicle control. The 50% inhibitory concentration (IC50) was determined from the resultant concentration-response curve.

In data set [6] the test system is LPS-induced TNFα release in d-U937 cells. Kind of data set: LPS-induced TNFα release in d-U937 cells. The data set is classed as cell-based. The note with it: Homo sapiens, dU937, 4 h; read-out: LPS/TNFα REC50 d-U937. The method, then: as §1, §2
The target in data set [7] is T2, Recombinant, phosphorylated p38 MAPKγ (MAPK12:Invitrogen) (Homo sapiens, UniProt P53778).
T2 construct: purchased Invitrogen
T2 sequence (P53778 1-367): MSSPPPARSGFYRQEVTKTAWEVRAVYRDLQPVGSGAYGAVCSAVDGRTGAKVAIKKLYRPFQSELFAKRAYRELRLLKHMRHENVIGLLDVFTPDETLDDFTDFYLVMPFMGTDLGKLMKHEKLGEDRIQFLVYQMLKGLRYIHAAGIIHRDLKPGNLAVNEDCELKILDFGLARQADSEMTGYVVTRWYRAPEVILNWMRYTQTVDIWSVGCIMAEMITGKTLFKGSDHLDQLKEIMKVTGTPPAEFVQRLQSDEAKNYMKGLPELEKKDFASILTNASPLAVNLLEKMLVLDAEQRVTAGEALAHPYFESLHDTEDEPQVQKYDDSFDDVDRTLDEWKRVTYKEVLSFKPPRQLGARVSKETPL
In words: p38 MAPKγ enzyme inhibition assay (FRET, Z-LYTE). It is filed as biochemical. The note with it: 2 hr pre-incubation, ATP 100 μM; read-out: Enzyme Inhibition IC50 p38γ.

T1 sequence (Q16539 whole entry, canonical isoform): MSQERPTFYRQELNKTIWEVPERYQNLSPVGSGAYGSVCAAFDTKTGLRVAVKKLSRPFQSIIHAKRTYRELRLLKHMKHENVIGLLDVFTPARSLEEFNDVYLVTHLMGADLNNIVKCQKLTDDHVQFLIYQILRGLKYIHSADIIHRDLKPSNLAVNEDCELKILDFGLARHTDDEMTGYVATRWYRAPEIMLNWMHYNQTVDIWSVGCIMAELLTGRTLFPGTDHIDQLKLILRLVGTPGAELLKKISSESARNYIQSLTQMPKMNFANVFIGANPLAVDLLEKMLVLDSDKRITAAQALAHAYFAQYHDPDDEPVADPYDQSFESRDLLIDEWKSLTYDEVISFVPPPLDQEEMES

For the molecule `COCC(=O)Nc1cc(Oc2ccc(NC(=O)Nc3cc(C(C)(C)C)nn3-c3ccc(N)cc3)c3ccccc23)ccn1` [Example 1, N-(4-(4-(3-(1-(4-Aminophenyl)-3-tert-butyl-1H-pyrazol-5-yl)ureido)naphthalen-1-yloxy)pyridin-2-yl)-2-methoxyacetamide], the IC50 in data set [1] came to 1 nM; in data set [2] it was 8.3 nM; in data set [3], 0.9 nM; in data set [5], 1 nM; in data set [7], 72.4 nM. Also, in data set [4], the “MTT Assay (Viability) 4 h d-U937” value is given as −26.6%. Further, the “MTT Assay (Viability) 24 h d-U937” value in data set [4] is on record as 78.0%. For the same molecule, the EC50 in data set [6] came to 0.6 nM.
Consider `COCC(=O)Nc1cc(Oc2ccc(NC(=O)Nc3cc(C(C)(C)C)nn3-c3ccc(OC)cc3)c3ccccc23)ccn1` [Example 3, N-(4-((4-(3-(3-(tert-Butyl)-1-(4-methoxyphenyl)-1H-pyrazol-5-yl)ureido)naphthalen-1-yl)oxy)pyridin-2-yl)-2-methoxyacetamide], for which the IC50 in data set [1] amounted to 3.3 nM; in data set [2], 5.7 nM; in data set [3], 15.5 nM; in data set [5] it was 1.5 nM; in data set [7] it was 58.2 nM. Moreover, the “MTT Assay (Viability) 4 h d-U937” value in data set [4] is −28.4%. For the same molecule, the “MTT Assay (Viability) 24 h d-U937” value in data set [4] was −51.5%. Moreover, the EC50 in data set [6] amounted to 1.9 nM.
`COCC(=O)Nc1cc(Oc2ccc(NC(=O)Nc3cc(C4(C)CCOCC4)nn3-c3ccc(C)cc3)c3ccccc23)ccn1` [Example 20, 2-Methoxy-N-(4-(4-(3-(3-(4-methyltetrahydro-2H-pyran-4-yl)-1-p-tolyl-1H-pyrazol-5-yl)ureido)naphthalen-1-yloxy)pyridin-2-yl)acetamide]: the IC50 in data set [1] came to 0.6 nM; in data set [2] it was 4.4 nM; in data set [3], 3.6 nM; in data set [5], 0.9 nM; in data set [7] it was 143 nM. Further, the “MTT Assay (Viability) 4 h d-U937” value in data set [4] is −32.6%. Also, the “MTT Assay (Viability) 24 h d-U937” value in data set [4] is −9.0%. In addition, in data set [6], the EC50 was 0.2 nM.
With `COCC(=O)Nc1cc(COc2ccc(NC(=O)Nc3cc(C(C)(C)C)nn3-c3ccc(OC)cc3)c(C)c2C)ccn1` [Example 59, N-(4-((4-(3-(3-tert-butyl-1-(4-methoxyphenyl)-1H-pyrazol-5-yl)ureido)-2,3-dimethylphenoxy)methyl)pyridin-2-yl)-2-methoxy acetamide], the IC50 stood at 165 nM in data set [1]; 277 nM in data set [2]; 12.7 nM in data set [3]; 242 nM in data set [5]; 4150 nM in data set [7]. Moreover, the “MTT Assay (Viability) 4 h d-U937” value in data set [4] is given as 11.3%. Besides, the “MTT Assay (Viability) 24 h d-U937” value in data set [4] is on record as 0.9%. In addition, the EC50 in data set [6] is 104 nM.
For the molecule `COCC(=O)Nc1cc(Oc2ccc(NC(=O)Nc3cc(C(C)(C)C)nn3-c3ccc(S(C)(=O)=O)cc3)c3ccccc23)ncn1` [Example 50, N-(6-(4-(3-(3-tert-butyl-1-(4-(methylsulfonyl)phenyl)-1H-pyrazol-5-yl)ureido)naphthalen-1-yloxy)pyrimidin-4-yl)-2-methoxyacetamide], the IC50 in data set [1] came out at 272 nM; in data set [2] it was 100 nM; in data set [3], 9.5 nM; in data set [5], 13.3 nM; in data set [7], 39.3 nM. Besides, the “MTT Assay (Viability) 4 h d-U937” value in data set [4] is recorded as −8.0%. Besides, in data set [4], the “MTT Assay (Viability) 24 h d-U937” value is listed as −10.4%. For the same molecule, the EC50 in data set [6] stood at 4.5 nM.
Turning to `COCC(=O)Nc1cc(Oc2ccc(NC(=O)Nc3cc(C(F)(F)F)nn3-c3ccc(C)cc3)c3ccccc23)ccn1` [Example 29, 2-methoxy-N-(4-(4-(3-(1-p-tolyl-3-(trifluoromethyl)-1H-pyrazol-5-yl)ureido)naphthalen-1-yloxy)pyridin-2-yl)acetamide], the IC50 in data set [1] is > 1690 nM; in data set [2], 412 nM; in data set [3], 7.7 nM; in data set [5], 138 nM; in data set [7], 14500 nM. Also, in data set [4], the “MTT Assay (Viability) 4 h d-U937” value is given as 0.8%. For the same molecule, the “MTT Assay (Viability) 24 h d-U937” value in data set [4] is given as −5.7%. In data set [6], the EC50 came to 3300 nM.
On to `COc1ccc(-n2nc(C(C)(C)C)cc2NC(=O)Nc2ccc(Oc3ccnc(NC(=O)N(C)C)c3)c3ccccc23)cc1` [Example 7, 3-(4-(4-(3-(3-tert-Butyl-1-(4-methoxyphenyl)-1H-pyrazol-5-yl)ureido)naphthalen-1-yloxy)pyridin-2-yl)-1,1-dimethylurea], for which the IC50 in data set [1] was 0.1 nM; in data set [2] it was 1.9 nM; in data set [3], 4.1 nM; in data set [5], 0.7 nM; in data set [7], 138 nM. Further, in data set [4], the “MTT Assay (Viability) 4 h d-U937” value was −13.3%. Also, the “MTT Assay (Viability) 24 h d-U937” value in data set [4] is given as −39.1%. The EC50 in data set [6] was 0.03 nM.
As for `CN1CCN(C(=O)Nc2cc(Oc3ccc(NC(=O)Nc4cc(C(C)(C)C)nn4-c4ccc(S(C)(=O)=O)cc4)c4ccccc34)ccn2)CC1` [Example 48, N-(4-(4-(3-(3-tert-butyl-1-(4-(methylsulfonyl)phenyl)-1H-pyrazol-5-yl)ureido)naphthalen-1-yloxy)pyridin-2-yl)-4-methylpiperazine-1-carboxamide], the IC50 in data set [1] came out at 5 nM; in data set [2], 32.7 nM; in data set [3] it was 0.6 nM; in data set [5], 3.4 nM; in data set [7], 123 nM. Also, the “MTT Assay (Viability) 4 h d-U937” value in data set [4] is recorded as −16.1%. Further, the “MTT Assay (Viability) 24 h d-U937” value in data set [4] is given as −11.3%. In addition, in data set [6], the EC50 was found to be 2.4 nM.
Consider `COCC(=O)Nc1cc(Oc2ccc(NC(=O)Nc3cc(C(C)(C)C)nn3-c3ccc(O)nc3)c3ccccc23)ccn1.Cl` [Example 17, N-(4-(4-(3-(3-tert-Butyl-1-(6-hydroxypyridin-3-yl)-1H-pyrazol-5-yl)ureido)naphthalen-1-yloxy)pyridin-2-yl)-2-methoxyacetamide], for which the IC50 stood at 24.5 nM in data set [1]; 25.3 nM in data set [2]; 14.3 nM in data set [3]; 2 nM in data set [5]; 76.3 nM in data set [7]. The “MTT Assay (Viability) 4 h d-U937” value in data set [4] is −6.1%. In addition, the “MTT Assay (Viability) 24 h d-U937” value in data set [4] was −7.6%. Also, the EC50 in data set [6] turned out to be 1.4 nM.

These data come from patent US9024041B2, “P38 MAP kinase inhibitors” (Respivert Ltd., priority 2010, dated 2015).
